The results in this text go back to patent publication US9862730B2, “Imidazothiadiazole derivatives as protease activated receptor 4 (PAR4) inhibitors for treating platelet aggregation” (BRISTOL-MYERS SQUIBB COMPANY, priority 2012, dated 2018).

The target in the experiment is PAR4 (Homo sapiens (Human), UniProt Q96RI0). The experiment is described as follows: FLIPR assay in PAR4-expressing HEK293 cells (PAR4 antagonist activity, calcium mobilization). The class given is cell-based. The following applies: FLIPR assay as described in Example A. The text has this:
The FLIPR assay is an exemplary in vitro assay for measuring the activity of the PAR4 antagonists of the present invention. In this assay, intracellular calcium mobilization is induced in PAR4 expressing cells by a PAR4 agonist and calcium mobilization is monitored. See, e.g., Example A.
HEK293 cells stably expressing PAR4 were generated by a standard method of transfection of human […] cDNA expression vector or by RAGE technology from Athersys Inc. (Cleveland, Ohio) and selected based on PAR4 protein expression of mRNA expression. […] These cells express endogenous PAR1 and can elicit calcium signal upon stimulation with PAR1 agonist peptide.
Counter screens for agonist activity and PAR1 antagonist activity were also performed. Briefly, HEK293 EBNA PAR4 clone 20664.1J cells were plated 24 hrs. prior to experiment in 384 well, Poly-D-Lysine coated, black, clear bottom plates (Greiner Bio-One, Monroe, N.C.). Cells were plated at 20,000 cells/well in 20 μl growth medium and incubated at 37° C. with 5% CO2 overnight. At time of assay, media was replaced with 40 μl 1× Hank's Buffered Saline Solution (HBSS) (with 10 mM HEPES) and 20 μl test compound also diluted in 1×HBSS buffer was added at various concentrations and 0.67% DMSO final concentration on the FDSS for agonist measurement. The cells were then incubated for 30 minutes at room temperature followed by addition of 20 μl of agonist peptide for antagonist measurement on the FDSS.
As indicated above, the FLIPR assay, an in vitro assay, measures the PAR4 antagonist activity of compounds tested as described in Example A.
A general note: Calcium flux is commonly read through the fluorescence of an indicator in the cells.

Chain of PAR4 (Q96RI0 18-385): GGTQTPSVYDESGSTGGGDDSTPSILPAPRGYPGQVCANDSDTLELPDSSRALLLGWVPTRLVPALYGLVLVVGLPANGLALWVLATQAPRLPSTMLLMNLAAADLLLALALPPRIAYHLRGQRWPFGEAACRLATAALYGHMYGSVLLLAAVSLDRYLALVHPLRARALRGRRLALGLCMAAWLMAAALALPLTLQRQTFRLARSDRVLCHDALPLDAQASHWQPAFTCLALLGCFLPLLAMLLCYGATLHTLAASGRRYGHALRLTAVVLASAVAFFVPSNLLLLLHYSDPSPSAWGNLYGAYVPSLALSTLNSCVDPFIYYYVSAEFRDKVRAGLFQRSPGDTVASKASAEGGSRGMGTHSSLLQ

Turning to `COc1nn2cc(-c3cc4cccc(C)c4o3)nc2s1` [Example 89], the IC50 was 28.2 nM.

Regarding `COc1cc(OCc2cccc(OCc3ccc(OC)c(OC)c3Cl)c2)c2cc(-c3cn4nc(OC)sc4n3)oc2c1` [Example 361], the IC50 was determined as 1.35 nM.

Regarding `Fc1ccc2sc(-c3cn4nc(Br)sc4n3)nc2c1` [Example 193], the IC50 was 1040 nM.

For `COc1cc2oc(-c3cn4nc([C@H](C)F)sc4n3)cc2cc1Cl` [270B], the IC50 came to 3.37 nM.

As to `COc1cc(OCc2cccc(OCc3ccc(I)cc3)c2)c2cc(-c3cn4nc(OC)sc4n3)oc2c1` [Example 391], the IC50 was found to be 3.03 nM.

For the compound `COc1cc(OC[C@@H]2CCCN2C(=O)OC(C)(C)C)c2cc(-c3cn4nc(OC)sc4n3)oc2c1` [Example 342-343], the IC50 was found to be 253 nM.

In the case of `COc1cc2oc(-c3cn4nc(C(C)(F)F)sc4n3)cc2cc1Br` [Example 272], the IC50 is 29.1 nM.

As to `CSc1nn2cc(-c3nc4cc(F)ccc4o3)nc2s1` [Example 126], the IC50 worked out at 10.4 nM.

Turning to `COc1cc2oc(-c3cn4nc(SC)sc4n3)cc2cc1Cl` [Example 202, 6-(5-Chloro-6-methoxybenzofuran-2-yl)-2-(methylthio)imidazo[2,1-b][1,3,4]thiadiazole], the IC50 is 3.15 nM.

For `COc1ccc2cc(-c3cn4nc(OC)sc4n3)oc2c1` [Example 71], the IC50 stood at 1.22 nM.

As to `COc1nn2cc(-c3cc4cccc(OC)c4o3)nc2s1` [Example 9, 2-Methoxy-6-(7-methoxybenzofuran-2-yl)imidazo[2,1-b][1,3,4]thiadiazole], the IC50 came to 224 nM.

`COc1nn2cc(-c3nc4cc(F)c(F)cc4o3)nc2s1` [Example 138]: the IC50 was determined as 470 nM.

`CCc1nn2cc(-c3nc4cc(C)c(C)cc4o3)nc2s1` [Example 46]: the IC50 is 565 nM.

`Cc1cc2oc(-c3cn4nc(Br)sc4n3)cc2cc1Cl` [Example 277]: the IC50 was determined as 512 nM.

With `COc1ccc2cc(-c3cn4nc(C(C)F)sc4n3)oc2c1` (centres unmarked) [Example 293], the IC50 was determined as 4.83 nM.

Consider `CSc1nn2cc(-c3nc4cc(C(C)(C)C)ccc4o3)nc2s1` [Example 132], for which the IC50 was found to be 87.2 nM.

`CSc1nn2cc(-c3cc4c(OCc5cccnc5)cccc4o3)nc2s1` [Example 216, 2-(Methylthio)-6-(4-(pyridin-3-ylmethoxy)benzofuran-2-yl) imidazo[2,1-b][1,3,4]thiadiazole]: the IC50 worked out at 482 nM.

As for `COc1cc(OCc2ccccc2)c2cc(-c3cn4nc(SC)sc4n3)oc2c1` [Example 227-228], the IC50 came to 4.05 nM.

Turning to `COc1nn2cc(-c3cc4ccc(OCc5ccccc5)cc4o3)nc2s1` [Example 104], the IC50 stood at 26.2 nM.

Take `COc1nn2cc(-c3cc4c(O)c(Cc5ccccc5)c(OC)cc4o3)nc2s1` [Example 224, 5-Benzyl-6-methoxy-2-(2-methoxyimidazo[2,1-b][1,3,4]thiadiazol-6-yl)benzofuran-4-ol]: the half-inhibitory concentration (IC50) came to 97.1 nM.

As to `COc1cc(OCc2cccc(OCc3ccc(C)cc3C)c2)c2cc(-c3cn4nc(OC)sc4n3)oc2c1` [Example 312], the IC50 stood at 2.13 nM.

`COc1cc2oc(-c3cn4nc(Br)sc4n3)cc2cc1Cl` [Example 200, 2-Bromo-6-(5-chloro-6-methoxybenzofuran-2-yl)imidazo[2,1-b][1,3,4]thiadiazole]: the half-maximal inhibitory concentration (IC50) came to 8.63 nM.

With `COc1nn2cc(-c3cc4c(OCc5cccc(OCc6ccccc6)c5)cc(F)cc4o3)nc2s1` [Example 427], the IC50 was 1.91 nM.

Consider `CCc1nn2cc(-c3cc4cccc(OC)c4o3)nc2s1` [Example 37], for which the IC50 stood at 8.51 nM.

As to `COc1cc(OC[C@H]2CCCN2C(=O)OC(C)(C)C)c2cc(-c3cn4nc(OC)sc4n3)oc2c1` [Example 340], the IC50 was 2.21 nM.

Consider `COc1cc(OCc2cccc(OCc3cc(C(F)(F)F)ccc3F)c2)c2cc(-c3cn4nc(OC)sc4n3)oc2c1` [Example 321], for which the IC50 turned out to be 6.73 nM.

For the compound `COc1cc(OCc2cccc(OCc3c(F)ccc(F)c3F)c2)c2cc(-c3cn4nc(OC)sc4n3)oc2c1` [Example 330], the IC50 was 2.62 nM.

As to `COc1cc(OCc2cccc(OCc3ccc(OCc4ccccc4)cc3)c2)c2cc(-c3cn4nc(OC)sc4n3)oc2c1` [Example 366], the IC50 turned out to be 164 nM.

On to `COc1nn2cc(-c3cc4cccc(OC)c4o3)nc2s1` [Example 35], for which the IC50 amounted to 7.65 nM.

As for `COc1cc(OC(C)C)c2cc(-c3cn4nc(OC)sc4n3)oc2c1` [Example 300], the IC50 was determined as 3.43 nM.

`CC(F)(F)c1nn2cc(-c3nc4c([N+](=O)[O-])cccc4o3)nc2s1` [Example 123, 2-(2-(1,1-Difluoroethyl)imidazo[2,1-b][1,3,4]thiadiazol-6-yl)-4-nitrobenzo[d]oxazole]: the IC50 was 1120 nM.

With `CSc1nn2cc(-c3nc4ccccc4s3)nc2s1` [Example 4, 2-(2-(Methylthio)imidazo[2,1-b][1,3,4]thiadiazol-6-yl)benzo[d]thiazole], the IC50 was determined as 12.9 nM.

For `CSc1nn2cc(-c3nc4ccc(OCc5ccc(C(F)(F)F)cc5)cc4o3)nc2s1` [Example 153], the 50% inhibitory concentration (IC50) was determined as 345 nM.

On to `COCOc1ccc2nc(-c3cn4nc(SC)sc4n3)oc2c1` [Example 162], for which the IC50 is 171 nM.

Consider `COc1nn2cc(-c3cc4cc(OC(F)(F)F)ccc4o3)nc2s1` [Example 98], for which the concentration for half-maximal inhibition (IC50) was determined as 187 nM.

As for `CCc1nn2cc(-c3nc4ccc(OCCCc5ccccc5)cc4o3)nc2s1` [Example 78], the IC50 was 576 nM.

Take `COc1nn2cc(-c3cc4cc([N+](=O)[O-])ccc4o3)nc2s1` [Example 100]: the IC50 was determined as 71.4 nM.

Consider `COc1cc(OCc2cccc(OCc3cccc(F)c3F)c2)c2cc(-c3cn4nc(OC)sc4n3)oc2c1` [Example 314], for which the IC50 was 0.72 nM.

Take `COc1cc2oc(-c3cn4nc(C(C)(F)F)sc4n3)cc2cc1Cl` [Example 239]: the 50% inhibitory concentration (IC50) is 7.24 nM.

With `CCc1nn2cc(-c3nc4ccc(OCCC(C)C)cc4o3)nc2s1` [Example 77], the IC50 was found to be 1370 nM.

`CC(F)(F)c1nn2cc(-c3cc4ccc(OCc5ccccc5)cc4o3)nc2s1` [Example 241]: the IC50 came to 290 nM.

Take `COc1cc(OCc2cccc(OCc3ccc(C)c(C)c3)c2)c2cc(-c3cn4nc(OC)sc4n3)oc2c1` [Example 381]: the IC50 is 2.77 nM.

Consider `Fc1ccc2cc(-c3cn4nc(Br)sc4n3)oc2c1` [Example 264], for which the IC50 turned out to be 37.8 nM.

For `COc1cc(OC(C)C)c2cc(-c3cn4nc(SC)sc4n3)oc2c1` [Example 298], the IC50 is 18.6 nM.

For the compound `COc1cc2oc(-c3cn4nc([C@H](C)F)sc4n3)cc2cc1Cl` [270-1], the IC50 turned out to be 9.53 nM.

With `CSc1nn2cc(-c3cc4c(Br)cccc4o3)nc2s1` [Example 258], the IC50 turned out to be 3.32 nM.

`COc1nn2cc(-c3cc4c(OCc5ccccc5)cccc4o3)nc2s1` [Example 210, 6-(4-(Benzyloxy)benzofuran-2-yl)-2-methoxyimidazo[2,1-b][1,3,4]thiadiazole]: the IC50 was determined as 24.5 nM.

`CSc1nn2cc(-c3nc4c(OCc5ccc(Cl)cc5)cccc4o3)nc2s1` [Example 157]: the IC50 came out at 1650 nM.

Consider `CCc1nn2cc(-c3cc4ccccc4o3)nc2s1` [Example 47], for which the IC50 is 68 nM.

On to `COc1cc(OCc2cccc(OCc3ccc(Cl)cc3F)c2)c2cc(-c3cn4nc(OC)sc4n3)oc2c1` [Example 323], for which the IC50 is 1.48 nM.

In the case of `CSc1nn2cc(-c3nc4c(OCc5ccccc5)cccc4o3)nc2s1` [Example 148], the IC50 is 224 nM.

`COc1nn2cc(-c3cc4ccc(O)cc4o3)nc2s1` [Example 108]: the IC50 was found to be 461 nM.

Regarding `COc1cc(OCc2cccc(OCc3cccc(OCc4cccc(Cl)c4)c3)c2)c2cc(-c3cn4nc(OC)sc4n3)oc2c1` [Example 375], the IC50 stood at 260 nM.

Consider `CSc1nn2cc(-c3nc4c(OC[C@H]5CCCN5C(=O)[C@H](NC(=O)OC(C)(C)C)c5ccccc5)cccc4o3)nc2s1` [Example 333, tert-Butyl ((R)-2-((R)-2-(((2-(2-(methylthio)imidazo[2,1-b][1,3,4]thiadiazol-6-yl)benzo[d]oxazol-4-yl)oxy)methyl)pyrrolidin-1-yl)-2-oxo-1-phenylethyl)carbamate], for which the IC50 was found to be 566 nM.

For `CC(F)(F)c1nn2cc(-c3cc4cc(Cl)ccc4o3)nc2s1` [Example 236], the IC50 came to 159 nM.

As to `CC(F)(F)c1nn2cc(-c3nc4ccccc4o3)nc2s1` [Example 178], the IC50 amounted to 2340 nM.

Consider `C[C@@H](F)c1nn2cc(-c3cc4c(Cl)cc(Cl)cc4o3)nc2s1` [Example 213A, (R)-6-(4,6-Dichlorobenzofuran-2-yl)-2-(1-fluoroethyl)imidazo[2,1-b][1,3,4]thiadiazole], for which the IC50 was found to be 333 nM.

Consider `CSc1nn2cc(-c3nc4ccc(OC(F)(F)F)cc4s3)nc2s1` [Example 180, 2-(2-(Methylthio)imidazo[2,1-b][1,3,4]thiadiazol-6-yl)-6-(trifluoromethoxy)benzo[d]thiazole], for which the IC50 was determined as 189 nM.

With `Cc1ccc2nc(-c3cn4nc(C(C)(F)F)sc4n3)sc2c1` [Example 199], the IC50 amounted to 2680 nM.

In general, IC50 refers to the point on the concentration scale where inhibition reaches its midpoint.
